Patent publication US10584115B2, “Substituted pyridine and pyrazine BMI-1 inhibitors” (PTC Therapeutics, Inc., priority 2013, dated 2020)

What follows are compounds tested on Bmi-1 protein (assay: Sandwich ELISA Assay (Bmi-1 protein level in HT-1080 cells after compound treatment)). Settings: Table 1, Bmi-1 sandwich ELISA, read-out: ELISA EC50 value for Bmi-1 protein.
Type: cell-based
Summary of the method: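 HT-1080 cells exposed to compounds for 40–48 h at 37 °C (0.5% DMSO final), then lysed. Bmi-1 in lysates measured by sandwich ELISA (mouse monoclonal capture, rabbit anti-Bmi-1 detection, HRP anti-rabbit, TMB), read at OD450 with OD570 reference against a recombinant Bmi-1 standard curve (0–8000 pg/mL).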

Row | Compound | EC50 [nM]
1 | FC(F)(F)c1ccc(Nc2cccc(-n3c(C(F)(F)F)nc4ncccc43)n2)cc1 [compound 137, 6-[2-(trifluoromethyl)-1H-imidazo[4,5-b]pyridin-1-yl]-N-[4-(trifluoromethyl)phenyl]pyridin-2-amine] | 100 to 3000
2 | CCNc1nc2ccccc2n1-c1cncc(Nc2ccc(C(F)(F)F)cc2)n1 [compound 138, N-ethyl-1-(6-{[4-(trifluoromethyl)phenyl]amino}pyrazin-2-yl)-1H-benzimidazol-2-amine] | 10 to 100
3 | Cc1nc2ncccc2n1-c1cccc(Nc2ccc(C(F)(F)F)cc2)n1 [compound 139, 6-(2-methyl-1H-imidazo[4,5-b]pyridin-1-yl)-N-[4-(trifluoromethyl)phenyl]pyridin-2-amine] | 10 to 100
4 | CCc1nc2ncccc2n1-c1cccc(Nc2ccc(C(F)(F)F)cc2)n1 [compound 140, 6-(2-ethyl-1H-imidazo[4,5-b]pyridin-1-yl)-N-[4-(trifluoromethyl)phenyl]pyridin-2-amine] | 10 to 100
5 | FC(F)(F)Oc1ccc(Nc2cncc(-c3c(C(F)(F)F)nc4cnccn34)n2)cc1 [compound 141, N-[4-(trifluoromethoxy)phenyl]-6-[2-(trifluoromethyl)imidazo[1,2-a]pyrazin-3-yl]pyrazin-2-amine] | 100 to 3000
6 | FC(F)Oc1ccc(Nc2cncc(-c3c(C(F)(F)F)nc4cnccn34)n2)cc1 [compound 142, N-[4-(difluoromethoxy)phenyl]-6-[2-(trifluoromethyl)imidazo[1,2-a]pyrazin-3-yl]pyrazin-2-amine] | 10 to 100
7 | Cc1nn(C)c(C)c1-c1cncc(Nc2ccc(OC(F)F)cc2)n1 [compound 143, N-[4-(difluoromethoxy)phenyl]-6-(1,3,5-trimethyl-1H-pyrazol-4-yl)pyrazin-2-amine] | < 1
8 | Cc1nn(C)c(C)c1-c1cccc(Nc2ccc(OC(F)(F)F)cc2)n1 [compound 144, N-[4-(trifluoromethoxy)phenyl]-6-(1,3,5-trimethyl-1H-pyrazol-4-yl)pyridin-2-amine] | 100 to 3000
9 | CC(O)c1nc2ccccc2n1-c1cncc(Nc2ccc(C(F)(F)F)cc2)n1 (centres unmarked) [compound 150, 1-[1-(6-{[4-(trifluoromethyl)phenyl]amino}pyrazin-2-yl)-1H-benzimidazol-2-yl]ethanol] | 10 to 100
10 | OCc1nc2ccccn2c1-c1cncc(Nc2ccc(C(F)(F)F)cc2)n1 [compound 151, [3-(6-{[4-(trifluoromethyl)phenyl]amino}pyrazin-2-yl)imidazo[1,2-a]pyridin-2-yl]methanol] | 1 to 10
11 | Cc1nc2ccccc2n1-c1cncc(Nc2ccc(CO)cc2)n1 [compound 152, (4-{[6-(2-methyl-1H-benzimidazol-1-yl)pyrazin-2-yl]amino}phenyl)methanol] | 10 to 100
12 | CC(=O)c1ccc(Nc2cncc(-n3c(C)nc4ccccc43)n2)cc1 [compound 153, 1-(4-{[6-(2-methyl-1H-benzimidazol-1-yl)pyrazin-2-yl]amino}phenyl)ethanone] | 1 to 10
13 | Cc1nc2ccccc2n1-c1cncc(Nc2ccc(C(C)O)cc2)n1 (centres unmarked) [compound 155, 1-(4-{[6-(2-methyl-1H-benzimidazol-1-yl)pyrazin-2-yl]amino}phenyl)ethanol] | 10 to 100
14 | C/C(=N\O)c1ccc(Nc2cncc(-n3c(C)nc4ccccc43)n2)cc1 [compound 156, N-{4-[(1E)-N-hydroxyethanimidoyl]phenyl}-6-(2-methyl-1H-benzimidazol-1-yl)pyrazin-2-amine] | 1 to 10
15 | N#Cc1nc2ccccc2n1-c1cncc(Nc2ccc(C(F)(F)F)cc2)n1 [compound 157, 1-(6-{[4-(trifluoromethyl)phenyl]amino}pyrazin-2-yl)-1H-benzimidazole-2-carbonitrile] | 100 to 3000
16 | O=[N+]([O-])c1cc(Nc2ccc(C(F)(F)F)cc2)nc(-c2c(C(F)(F)F)nc3ccccn23)c1 [compound 158, 4-nitro-6-[2-(trifluoromethyl)imidazo[1,2-a]pyridin-3-yl]-N-[4-(trifluoromethyl)phenyl]pyridin-2-amine] | 10 to 100
17 | Nc1cc(Nc2ccc(C(F)(F)F)cc2)nc(-c2c(C(F)(F)F)nc3ccccn23)c1 [compound 159, 6-[2-(trifluoromethyl)imidazo[1,2-a]pyridin-3-yl]-N^2-[4-(trifluoromethyl)phenyl]pyridine-2,4-diamine] | 1 to 10
18 | OCCNc1cc(Nc2ccc(C(F)(F)F)cc2)nc(-c2c(C(F)(F)F)nc3ccccn23)c1 [compound 160, 2-[(2-[2-(trifluoromethyl)imidazo[1,2-a]pyridin-3-yl]-6-{[4-(trifluoromethyl)phenyl]amino}pyridin-4-yl)amino]ethanol] | 10 to 100
19 | COCCNc1cc(Nc2ccc(C(F)(F)F)cc2)nc(-c2c(C(F)(F)F)nc3ccccn23)c1 [compound 161, N^4-(2-methoxyethyl)-6-[2-(trifluoromethyl)imidazo[1,2-a]pyridin-3-yl]-N^2-[4-(trifluoromethyl)phenyl]pyridine-2,4-diamine] | 10 to 100
20 | Cc1cc2ccccc2n1-c1cncc(Nc2ccc(C(F)(F)F)cc2)n1 [compound 162] | 100 to 3000
21 | Cc1cc2ccccc2n1-c1cncc(Nc2ccc(OC(F)F)cc2)n1 [compound 163, N-[4-(difluoromethoxy)phenyl]-6-(2-methyl-1H-indol-1-yl)pyrazin-2-amine] | 100 to 3000
22 | COc1ccc(Nc2cncc(-n3c(C)cc4ccccc43)n2)cc1 [compound 164, N-(4-methoxyphenyl)-6-(2-methyl-1H-indol-1-yl)pyrazin-2-amine] | 10 to 100
23 | Cc1nc2cnccc2n1-c1cncc(Nc2ccc(C(F)(F)F)cc2)n1 [compound 166, 6-(2-methyl-1H-imidazo[4,5-c]pyridin-1-yl)-N-[4-(trifluoromethyl)phenyl]pyrazin-2-amine] | 100 to 3000
24 | CSc1nc2ccccc2n1-c1cncc(Nc2ccc(OC(F)(F)F)cc2)n1 [compound 167, 6-[2-(methylsulfanyl)-1H-benzimidazol-1-yl]-N-[4-(trifluoromethoxy)phenyl]pyrazin-2-amine] | 100 to 3000
25 | Cc1ccc(Nc2cncc(-c3c(C(F)(F)F)nc4cnccn34)n2)cc1 [compound 168, N-(4-methylphenyl)-6-[2-(trifluoromethyl)imidazo[1,2-a]pyrazin-3-yl]pyrazin-2-amine] | 10 to 100
26 | O=[N+]([O-])c1cc(Nc2ccc(OC(F)F)cc2)nc(-c2c(C(F)(F)F)nc3ccccn23)c1 [compound 169, N-[4-(difluoromethoxy)phenyl]-4-nitro-6-[2-(trifluoromethyl)imidazo[1,2-a]pyridin-3-yl]pyridin-2-amine] | 10 to 100
27 | Nc1cc(Nc2ccc(OC(F)F)cc2)nc(-c2c(C(F)(F)F)nc3ccccn23)c1 [compound 170, N^2-[4-(difluoromethoxy)phenyl]-6-[2-(trifluoromethyl)imidazo[1,2-a]pyridin-3-yl]pyridine-2,4-diamine] | 100 to 3000
28 | OCCNc1cc(Nc2ccc(OC(F)F)cc2)nc(-c2c(C(F)(F)F)nc3ccccn23)c1 [compound 171] | 10 to 100
29 | COCCNc1cc(Nc2ccc(OC(F)F)cc2)nc(-c2c(C(F)(F)F)nc3ccccn23)c1 [compound 172, N^2-[4-(difluoromethoxy)phenyl]-N^4-(2-methoxyethyl)-6-[2-(trifluoromethyl)imidazo[1,2-a]pyridin-3-yl]pyridine-2,4-diamine] | 10 to 100
